The structures appear in SMILES notation.

Results on one molecule are retold here after patent US7258882B2, “System for maintaining fresh quality and safe food attributes of minimally processed produce” (priority 2002, dated 2007).

This assay has as its system total aerobic population. Kind of assay: Total aerobic plate count of washed, packaged and stored mushrooms. The text has this:
Mushrooms were either 1) untreated (unwashed), that is, left as picked; 2) sodium metabisulfite (sulfite treated) washed. Mushrooms were water rinsed with tap water for 2 seconds then processed through 2 consecutive dip tanks containing 500 ppm sodium metabisulfite in solution; or 3) Washed using the herein disclosed process (new wash) specifically as follows: Mushrooms were conveyed on a slotted conveyor belt and sprayed with tap water for 2 seconds. They dropped into a series of two dip tanks containing 3% (w/v) sodium erythorbate, 0.15% (w/v) disodium EDTA, 0.15% (w/v) calcium chloride. Total residence time was 30 seconds. The whole mushrooms were then treated by dipping in water containing 2 ppm ozone (15 second exposure) followed immediately by 10 second exposure to ultraviolet lamp. Half of the mushroom were sliced and again exposed to 10 seconds of ultraviolet lamp. The mushrooms were packaged and stored at either 35, 45 or 55 degrees Fahrenheit and analyzed microbiologically at day 0, 3, 6, and 9 for total aerobic plate count with a sensitivity of 1,000 cfu/gram, and day 3,6 and 9 for organoleptic properties including degree of whiteness, amount of veil opening, and overall salability/quality. Storage at 45 and 55 degrees Fahrenheit represent physiologically stressful conditions and will illustrate benefits of treatments to a greater extent than 35 degree F. storage. For all examples, data was analyzed statistically using single factor ANOVA and Student's T-test preparing two groups and assuming equal variances. All data was analyzed at 95% confidence levels. Mushrooms were either 1) Mushrooms were washed with water (2-3 second drench with tap water) then processed through 2 consecutive dip tanks containing an aqueous solution of 500 ppm sodium metabisulfite (sulfite treated); or 2) Washed using the herein disclosed process (new wash) specifically as follows: Mushrooms were conveyed on a slotted conveyor belt and sprayed with tap water for […]. They dropped into a series of two dip tanks containing 3% (w/v) sodium erythorbate, 0.15% (w/v) disodium EDTA, 0.15% (w/v) calcium chloride. Total residence time was 30 seconds. The whole mushrooms were then treated with 2 ppm ozone spray followed by 10 second exposure to ultraviolet lamp. Half of the mushroom were sliced and again exposed to 10 seconds of ultraviolet lamp. The mushrooms were packaged and stored at either 35, 45 or 55 degrees Fahrenheit. 35 degree F. stored samples were analyzed at day 0, 2, 6, and 9 and 14 for total aerobic plate count. Both 35 and 45 degree F. stored samples were analyzed on day 2, 6, 9 and 14 for organoleptic properties including degree of whiteness, amount of veil opening, and overall salability/quality. Storage at 45 degrees Fahrenheit represent physiologically stressful conditions and will illustrate benefits of treatments to a greater extent than 35 degree F. storage. Mushrooms were either 1) untreated (unwashed), that is, left as picked; 2)sodium metabisulfite (sulfite treated) washed. Mushrooms were water rinsed with tap water for 5 seconds then processed through 2 consecutive dip tanks containing 500 ppm sodium metabisulfite; or 3)Washed using the herein disclosed process (new wash) specifically as follows: Mushrooms were conveyed on a slotted conveyor belt and sprayed with tap water for 2 seconds. They dropped into a series of two dip tanks containing 3% (w/v) sodium erythorbate, 0.3% (w/v) sodium chloride, 0.3% (w/v) calcium chloride. Total residence time was 30 seconds. In the third treatment (new wash 1) the whole mushrooms were then treated with 2 ppm ozone spray followed immediately by 10 second exposure to ultraviolet lamp. New wash 2 mushrooms were treated as described above but was treated only with ozone, no ultraviolet light. New wash 3 mushrooms were treated with 7 seconds of ultraviolet light, no ozone. New wash 4 mushrooms were treated with ozone and ultraviolet light simultaneously. […]

For `O=S([O-])S(=O)(=O)[O-].[Na+].[Na+]` [sulfite treated, sodium metabisulfite], the Total plate count reads like this: (Experiment 1, 35 degrees Fahrenheit, sliced, Day 0) 178,805 cfu/g; (Experiment 1, 35 degrees Fahrenheit, sliced, Day 3) 12,344,021 cfu/g; (Experiment 1, 35 degrees Fahrenheit, sliced, Day 6) 31345339 cfu/g; (Experiment 1, 35 degrees Fahrenheit, sliced, Day 9) 383205051 cfu/g; (Experiment 1, 35 degrees Fahrenheit, whole, Day 0) 299,999 cfu/g; (Experiment 1, 35 degrees Fahrenheit, whole, Day 3) 3,849,234 cfu/g. In addition, the Total plate count is on record as 20709887 cfu/g (Experiment 1, 35 degrees Fahrenheit, whole, Day 6); 31562526 cfu/g (Experiment 1, 35 degrees Fahrenheit, whole, Day 9); 69,673,049 cfu/g (Experiment 1, 45 degrees Fahrenheit, sliced, Day 3); 216,318,555 cfu/g (Experiment 1, 45 degrees Fahrenheit, whole, Day 3); 381,362,639 cfu/g (Experiment 1, 55 degrees Fahrenheit, sliced, Day 3); 145,637,959 cfu/g (Experiment 1, 55 degrees Fahrenheit, whole, Day 3). Besides, the Total plate count (Experiment 2, 35 degrees Fahrenheit, sliced, Day 0) was 168,922 cfu/g; the Total plate count (Experiment 2, 35 degrees Fahrenheit, sliced, Day 2) is 736,188 cfu/g; the Total plate count (Experiment 2, 35 degrees Fahrenheit, sliced, Day 6) was 6,101,012 cfu/g; the Total plate count (Experiment 2, 35 degrees Fahrenheit, sliced, Day 9) is 7,976,377 cfu/g; the Total plate count (Experiment 2, 35 degrees Fahrenheit, sliced, Day 14) is 702,413,006 cfu/g; the Total plate count (Experiment 2, 35 degrees Fahrenheit, whole, Day 0) is recorded as 24,188 cfu/g. The Total plate count is 59,492 cfu/g (Experiment 2, 35 degrees Fahrenheit, whole, Day 2); 428,579 cfu/g (Experiment 2, 35 degrees Fahrenheit, whole, Day 6); 734,285 cfu/g (Experiment 2, 35 degrees Fahrenheit, whole, Day 9); 253,940,711 cfu/g (Experiment 2, 35 degrees Fahrenheit, whole, Day 14). The “Total Plate Count Sliced” value (Experiment 3, sliced, within 18 hours of processing) is given as 918,987 cfu/gram. For the same molecule, the “Total Plate Count Whole” value (Experiment 3, whole, within 18 hours of processing) is listed as 352,745 cfu/gram.
